Patent US8183262B2, “Pyridine derivatives as mGluR2 antagonists” (Hoffmann-La Roche Inc., priority 2007, dated 2012)

| Compound | melting point |
| --- | --- |
| Cc1cc(-c2cc(C(F)(F)F)nc(-c3nc(-c4ccc(S(N)(=O)=O)cc4)no3)n2)ccc1C(F)(F)F [Example 128, 4-{5-[4-(3-Methyl-4-trifluoromethyl-phenyl)-6-trifluoromethyl-pyrimidin-2-yl]-[1,2,4]oxadiazol-3-yl}-benzenesulfonamide] | 261 °C |
| Nc1ccc(-c2cccc(-c3nc(-c4ccc(C(F)(F)F)c(F)c4)cc(C(F)(F)F)n3)c2)cn1 [Example 96, 5-{3-[4-(3-Fluoro-4-trifluoromethyl-phenyl)-6-trifluoromethyl-pyrimidin-2-yl]-phenyl}-pyridin-2-ylamine] | 212 °C |
| Cc1cc(-c2cc(C(F)(F)F)nc(-c3nc(-c4cccc(S(N)(=O)=O)c4)no3)n2)ccc1Cl [Example 106, 3-{5-[4-(4-Chloro-3-methyl-phenyl)-6-trifluoromethyl-pyrimidin-2-yl]-[1,2,4]oxadiazol-3-yl}-benzenesulfonamide] | 246 °C |
| Cc1cc(-c2ccc(Cl)cc2)cc(-c2cncc(-c3ccc(N)nc3)c2)n1 [Example 81, 4-(4-Chloro-phenyl)-6-methyl-[2,3′;5′,3″]terpyridin-6″-ylamine] | 188 to 192 °C |
| NS(=O)(=O)c1cccc(-c2noc(-c3nc(-c4ccc(Cl)cc4)cc(C(F)(F)F)n3)n2)c1 [Example 18, 3-{5-[4-(4-Chloro-phenyl)-6-trifluoromethyl-pyrimidin-2-yl]-[1,2,4}oxadiazol-3-yl]-benzenesulfonamide] | 231 °C |

Further lines, results first:

| melting point | Compound |
| --- | --- |
| 244 °C | NS(=O)(=O)c1cccc(-c2cc(-c3nc(-c4cccc(C(F)(F)F)c4)cc(C(F)(F)F)n3)ccn2)c1 [Example 449, 3-{4-[4-Trifluoromethyl-6-(3-trifluoromethyl-phenyl)-pyrimidin-2-yl]-pyridin-2-yl}-benzenesulfonamide] |
| 281 °C | NS(=O)(=O)c1ccc(-c2cn(-c3nc(-c4ccc(C(F)(F)F)cc4)cc(C(F)(F)F)n3)cn2)s1 [Example 163, 5-{1-[4-Trifluoromethyl-6-(4-trifluoromethyl-phenyl)-pyrimidin-2-yl]-1H-imidazol-4-yl}-thiophene-2-sulfonic acid amide] |
| 237 °C | Cc1cc(-c2ccc(Cl)c(Cl)c2)cc(-c2ccc(-c3cnc(N)nc3)s2)n1 [Example 255, 5-{5-[4-(3,4-Dichloro-phenyl)-6-methyl-pyridin-2-yl]-thiophen-2-yl}-pyrimidin-2-ylamine] |
| 92 °C | Cc1cc(-c2ccc(C(F)(F)F)cc2)cc(-c2ccnc(-c3cccc(S(=O)(=O)NC(C)(C)CO)c3)c2)n1 [Example 349, N-(2-Hydroxy-1,1-dimethyl-ethyl)-3-[6-methyl-4-(4-trifluoromethyl-phenyl)-[2,4′]bipyridinyl-2′-yl]-benzenesulfonamide] |
| 258 °C | Cc1cc(-c2ccc(Cl)cc2)nc(-c2nc(-c3ccc(N)nc3)no2)n1 [Example 137, 5-{5-[4-(4-Chloro-phenyl)-6-methyl-pyrimidin-2-yl]-[1,2,4]oxadiazol-3-yl}-pyridin-2-ylamine] |
| 175 °C | Cc1cc(-c2ccc(C(F)(F)F)cc2)cc(-c2cc(-c3ccc(N)nc3)cs2)n1 [Example 256, 5-{5-[6-Methyl-4-(4-trifluoromethyl-phenyl)-pyridin-2-yl]-thiophen-3-yl}-pyridin-2-ylamine] |
| 103 °C (dec.) | Cc1cc(-c2ccc(C(F)(F)F)cc2)cc(-c2ccnc(-c3cccc(S(=O)(=O)NCCO)c3)c2)n1 [Example 348, N-(2-Hydroxy-ethyl)-3-[6-methyl-4-(4-trifluoromethyl-phenyl)-[2,4′]bipyridinyl-2′-yl]-benzenesulfonamide] |
| 211 °C | NS(=O)(=O)c1cccc(-c2cccc(-c3nc(-c4ccc(F)c(F)c4)cc(C(F)(F)F)n3)c2)c1 [Example 393, 3′-[4-(3,4-Difluoro-phenyl)-6-trifluoromethyl-pyrimidin-2-yl]-biphenyl-3-sulfonic acid amide] |
